The values below come from ChEMBL document CHEMBL3865822, “New palbociclib analogues modified at the terminal piperazine ring and their anticancer activities” (Eur J Med Chem, 2016).

A short description of series [1]: Cytotoxicity against human MCF7 cells assessed as reduction in cell viability after 48 hrs by CCK8 assay. In kind it is functional, cell-based. Conditions: MCF7, 48 h.
Series [2] is described as follows: Cytotoxicity against human MDA-MB-231 cells assessed as reduction in cell viability after 48 hrs by CCK8 assay. The class given is functional, cell-based. Conditions: MDA-MB-231, 48 h. In general terms: Tetrazolium assays rely on reduction of a dye to a coloured formazan, in cell work by metabolically active cells.
The target of series [3] is Cyclin-dependent kinase 6 (Homo sapiens, UniProt Q00534). The series can be described thus: Inhibition of CDK6 (unknown origin) using histone H1 as substrate after 10 mins in presence of [gamma32P]ATP.
Cyclin-dependent kinase 6, sequence (Q00534 whole entry): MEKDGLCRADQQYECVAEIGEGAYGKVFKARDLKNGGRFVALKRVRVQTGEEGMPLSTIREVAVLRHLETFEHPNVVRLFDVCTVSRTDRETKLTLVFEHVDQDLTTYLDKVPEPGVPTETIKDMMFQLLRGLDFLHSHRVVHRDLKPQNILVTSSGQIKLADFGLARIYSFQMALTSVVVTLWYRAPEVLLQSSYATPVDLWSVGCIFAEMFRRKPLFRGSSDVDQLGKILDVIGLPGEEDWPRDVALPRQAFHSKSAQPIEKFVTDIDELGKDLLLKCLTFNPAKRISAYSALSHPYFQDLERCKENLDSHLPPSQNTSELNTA
Series [4] has as its target Cyclin-dependent kinase 4 (Homo sapiens, UniProt P11802). The series can be described thus: Inhibition of CDK4 (unknown origin) using histone H1 as substrate after 10 mins in presence of [gamma32P]ATP.
Series [5] in a line: Cytotoxicity against human MDA-MB-453 cells assessed as reduction in cell viability after 48 hrs by CCK8 assay. In kind it is functional, cell-based. The settings on record: MDA-MB-453, 48 h.
The subject of series [6] is MCF7. The series can be described thus: Antitumor activity against […] human MCF7 cells xenografted in RNU rat assessed as tumor growth inhibition at 122.4 mg/kg/day, ig administered for 14 days measured on day 15. The class given is functional, organism-based. On the technique in general: A xenograft is tissue or cells of one species grown in another, often human tumour cells in immunodeficient mice.

Series [7] has as its system Rattus norvegicus. The series can be described thus: Toxicity in RNU rat xenografted with human MCF7 cells assessed as reduction in body weight at 122.4 mg/kg/day, ig administered for 14 days measured daily during compound dosing. The settings on record: in vivo, po, 336 h. The class given is organism-based.
For series [8], the system named is MCF7. Put plainly: Antitumor activity against […] human MCF7 cells xenografted in RNU rat assessed as tumor growth inhibition at 128.8 mg/kg/day, ig administered for 14 days measured on day 15. The class given is functional, organism-based.
The subject of series [9] is Rattus norvegicus. The series can be described thus: Toxicity in RNU rat xenografted with human MCF7 cells assessed as reduction in body weight at 128.8 mg/kg/day, ig administered for 14 days measured daily during compound dosing. The class given is organism-based. The settings on record: in vivo, po, 336 h.
Series [10] has as its system MCF7. The series can be described thus: Antitumor activity against human […] human MCF7 cells xenografted in RNU rat assessed as tumor growth inhibition at 100 mg/kg/day, ig administered for 14 days measured on day 15. In kind it is functional, organism-based.

Each structure is given as a SMILES string. Activity calls are given as the source filed them. No cut-off for these calls is given here.

Cyclin-dependent kinase 4, sequence (P11802 whole entry): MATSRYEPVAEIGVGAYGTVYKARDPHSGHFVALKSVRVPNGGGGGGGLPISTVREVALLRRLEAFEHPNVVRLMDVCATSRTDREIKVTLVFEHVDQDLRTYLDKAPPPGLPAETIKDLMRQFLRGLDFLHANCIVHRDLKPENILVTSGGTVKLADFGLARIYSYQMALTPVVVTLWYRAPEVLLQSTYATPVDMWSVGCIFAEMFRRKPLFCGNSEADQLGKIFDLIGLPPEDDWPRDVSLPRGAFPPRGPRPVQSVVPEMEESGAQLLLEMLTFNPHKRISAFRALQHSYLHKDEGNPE

One may read the IC50 as the concentration at which inhibition is half-maximal. Regarding `CCCOC(=O)N1CCN(c2ccc(Nc3ncc4c(C)c(C(C)=O)c(=O)n(C5CCCC5)c4n3)nc2)CC1`, the half-inhibitory concentration (IC50) in series [1] is greater than 2000 nM.
On the same count and under the same terms, with `CCCC(=O)OCN1CCN(c2ccc(Nc3ncc4c(C)c(C(C)=O)c(=O)n(C5CCCC5)c4n3)nc2)CC1` the figure was greater than 2000 nM; with `COCCN1CCN(c2ccc(Nc3ncc4c(C)c(C(C)=O)c(=O)n(C5CCCC5)c4n3)nc2)CC1`, 893 nM.
The same measure, in the same setting: with `COC(=O)N1CCN(c2ccc(Nc3ncc4c(C)c(C(C)=O)c(=O)n(C5CCCC5)c4n3)nc2)CC1` the figure was greater than 2000 nM.
Regarding `CC(=O)OCOC(=O)N1CCN(c2ccc(Nc3ncc4c(C)c(C(C)=O)c(=O)n(C5CCCC5)c4n3)nc2)CC1`, the IC50 in series [2] is greater than 1000 nM; in series [3], 28 nM; in series [4], 32 nM; in [1] it was 371 nM; in [5], 424 nM.
Turning to `CCCCOC(=O)N1CCN(c2ccc(Nc3ncc4c(C)c(C(C)=O)c(=O)n(C5CCCC5)c4n3)nc2)CC1`, the IC50 in [1] is greater than 2000 nM.
For `CC(=O)c1c(C)c2cnc(Nc3ccc(N4CCN(C(=O)CNCCN)CC4)cn3)nc2n(C2CCCC2)c1=O`, the TGI result in the series with MCF7 [6] is “Active”. Moreover, the 50% inhibitory concentration (IC50) in series [2] is 436 nM; in series [3], 23 nM; in [4], 19 nM; in [1], 223 nM; in series [5], 259 nM. Also, the Activity entry with Rattus norvegicus [7] was “Non-Toxic”.
Regarding `COCCCNCC(=O)N1CCN(c2ccc(Nc3ncc4c(C)c(C(C)=O)c(=O)n(C5CCCC5)c4n3)nc2)CC1`, the TGI result in the series on MCF7 [8] was “Active”. For the same molecule, the IC50 in series [2] was found to be 559 nM; in series [3], 18 nM; in series [4], 13 nM; in [1], 105 nM; in series [5] it was 93 nM. In the series with Rattus norvegicus [9], the Activity result is given as “Non-Toxic”.
On to `CC(=O)c1c(C)c2cnc(Nc3ccc(N4CCN(C(=O)CCC(=O)O)CC4)cn3)nc2n(C2CCCC2)c1=O`, for which the 50% inhibitory concentration (IC50) in [1] is greater than 2000 nM.
Still for that read-out and setting: with `CC(=O)c1c(C)c2cnc(Nc3ccc(N4CCN(C(=O)OC(C)C)CC4)cn3)nc2n(C2CCCC2)c1=O` the figure was greater than 2000 nM.
Still for that read-out and setting: with `CCOC(=O)CCN1CCN(c2ccc(Nc3ncc4c(C)c(C(C)=O)c(=O)n(C5CCCC5)c4n3)nc2)CC1` the figure was greater than 2000 nM; with `CC(=O)c1c(C)c2cnc(Nc3ccc(N4CCN(CCC(=O)O)CC4)cn3)nc2n(C2CCCC2)c1=O`, greater than 2000 nM.
Regarding `CC(=O)c1c(C)c2cnc(Nc3ccc(N4CCNCC4)cn3)nc2n(C2CCCC2)c1=O` [PALBOCICLIB], the IC50 stood at 580 nM in [2], 240 nM in series [1] and 137 nM in [5]. In addition, the TGI result with MCF7 [10] is “Active”.
`CCN1CCN(c2ccc(Nc3ncc4c(C)c(C(C)=O)c(=O)n(C5CCCC5)c4n3)nc2)CC1`: the IC50 in [2] was greater than 1000 nM; in [3], 34 nM; in series [4], 25 nM; in [1] it was 542 nM; in series [5], 487 nM.
For the molecule `CC(=O)c1c(C)c2cnc(Nc3ccc(N4CCN(C(=O)OCC(C)C)CC4)cn3)nc2n(C2CCCC2)c1=O`, the IC50 in series [1] was greater than 2000 nM.
With `CCCCCOC(=O)N1CCN(c2ccc(Nc3ncc4c(C)c(C(C)=O)c(=O)n(C5CCCC5)c4n3)nc2)CC1`, the IC50 in [1] was greater than 2000 nM.
Turning to `CC(=O)c1c(C)c2cnc(Nc3ccc(N4CCN(CCO)CC4)cn3)nc2n(C2CCCC2)c1=O`, the IC50 in series [1] amounted to 689 nM.
`CCOC(=O)CN1CCN(c2ccc(Nc3ncc4c(C)c(C(C)=O)c(=O)n(C5CCCC5)c4n3)nc2)CC1`: the concentration for half-maximal inhibition (IC50) in series [1] was greater than 2000 nM.
Consider `CC(=O)c1c(C)c2cnc(Nc3ccc(N4CCN(C(=O)CC#N)CC4)cn3)nc2n(C2CCCC2)c1=O`, for which the IC50 in [1] was 1520 nM.
For `CC(=O)c1c(C)c2cnc(Nc3ccc(N4CCN(C(C)=O)CC4)cn3)nc2n(C2CCCC2)c1=O`, the IC50 in series [1] was greater than 2000 nM.
